{
  "source": "patent US20080167188A1",
  "about": "“Herbicide Combinations Comprising Special Ketoenoles” (priority 2004, published 2008)",
  "format_in_all_cases": "in vivo",
  "key": {"[1]": {"tested_on": "TRZAS", "experiment": "field trial, herbicidal activity against TRZAS", "conditions": "2 to 3 repetitions, highest efficacy of three assessment days, g of a.i./ha: Ex. A.5 20, Glufosinate 400, combination 20 + 400", "procedure": "(§1) The reported results originate from field trials carried out in 2 to 3 repetitions. The weed grasses or crops are sown. The activities are assessed on three days; what is reported are the highest efficacies."}, "[2]": {"tested_on": "PESGL", "experiment": "field trial, herbicidal activity against PESGL", "conditions": "2 to 3 repetitions, highest efficacy of three assessment days, g of a.i./ha: Ex. A.5 20, Glufosinate 400, combination 20 + 400", "procedure": "as §1"}, "[3]": {"tested_on": "BROSTE", "experiment": "field trial, herbicidal activity against BROSTE", "conditions": "2 to 3 repetitions, highest efficacy of three assessment days, g of a.i./ha: Ex. A.1 20, Metazachlor 1000, combination 20 + 1000", "procedure": "as §1"}, "[4]": {"tested_on": "ALOMY", "experiment": "field trial, herbicidal activity against ALOMY", "conditions": "2 to 3 repetitions, highest efficacy of three assessment days, g of a.i./ha: Ex. A.1 20, Metazachlor 1000, combination 20 + 1000", "procedure": "as §1"}, "[5]": {"tested_on": "AGGRE", "experiment": "field trial, herbicidal activity against AGGRE", "conditions": "2 to 3 repetitions, highest efficacy of three assessment days, g of a.i./ha: Ex. A.1 20, Metazachlor 1000, combination 20 + 1000", "procedure": "as §1"}},
  "data": [
    {"compound": "CP(=O)(O)CCC(N)C(=O)O", "note": "(racemic) [Glufosinate (B4.2), 4-[hydroxy(methyl)phosphinoyl]-DL-homoalanine]", "values": [
      {"measurement": "% Activity TRZAS", "setting": "[1]", "result": 20, "unit": "%"},
      {"measurement": "% Activity PESGL", "setting": "[2]", "result": 20, "unit": "%"}
    ]},
    {"compound": "CCOC(=O)OC1=C(c2c(CC)cc(Cl)cc2OC)C(=O)NC12CCC(OC)CC2", "note": "(stereo not shown) [Ex. A.5]", "values": [
      {"measurement": "% Activity TRZAS", "setting": "[1]", "result": 69, "unit": "%"},
      {"measurement": "% Activity PESGL", "setting": "[2]", "result": 70, "unit": "%"}
    ]},
    {"compound": "CCc1cc(Cl)cc(OC)c1C1=C(O)C2(CCC(OC)CC2)NC1=O", "note": "(stereo not shown) [Ex. A.1]", "values": [
      {"measurement": "% Activity BROSTE", "setting": "[3]", "result": 35, "unit": "%"},
      {"measurement": "% Activity ALOMY", "setting": "[4]", "result": 42, "unit": "%"},
      {"measurement": "% Activity AGGRE", "setting": "[5]", "result": 60, "unit": "%"}
    ]},
    {"compound": "Cc1cccc(C)c1N(Cn1cccn1)C(=O)CCl", "note": "[Metazachlor (B 3.20), 2-chloro-N-(2,6-dimethylphenyl)-N-(1H-pyrazol-1-ylmethyl)acetamide]", "values": [
      {"measurement": "% Activity BROSTE", "setting": "[3]", "result": 45, "unit": "%"},
      {"measurement": "% Activity ALOMY", "setting": "[4]", "result": 28, "unit": "%"},
      {"measurement": "% Activity AGGRE", "setting": "[5]", "result": 10, "unit": "%"}
    ]}
  ]
}
